Source: patent US5856303A, “Peptide, a bronchus-expanding agent, and a blood-flow-improving agent” (Itoham Foods, Inc., priority 1995, dated 1999)
Ends that are not written are not given here.

Tests used:
[1] = test system: bronchial smooth muscle; test: Bronchus-expanding action: relaxation of carbachol-contracted guinea pig tracheal chain in organ bath; type: cell-based, guinea pigs; conditions: 0.1 μmol/l carbachol-contracted trachea
Source text: Purified peptides 1 to 15 obtained in Examples 1 to 15 were examined for their bronchus-expanding action in the following manner and compared with that of VIP and PACAP.
Male guinea pigs each weighing 450 to 500 g were cut at the jugular veins to open the chests, and immediately the tracheae were immediately removed. Their tracheae were immediately placed in a Krebs solution and cut into loops and then formed into a chain by linking the cartilage parts with one another via a steel string. Then, the cartilage parts in the opposite side to the smooth muscular parts were cut such that the smooth muscular parts were attached to one another. The resulting sample was placed in an about 10-ml isothermic organ bath and perpendicularly suspended. The lower part was fixed and the upper part was connected to a grass force transducer with a load of 1.4 g. A gas of 94% oxygen and 6% carbon dioxide was sufficiently blown into this sample while a Krebs solution containing 0.1μ mol/l carbachol was dropped to it at a rate of 0.33 ml/min. to determine relaxation action. Because the relaxation reaction occurs depending on the content of a test sample in this drop solution, this can be used to compare the relaxation action of VIP and PACAP and that of the peptides of the invention on the bronchial smooth muscle.
A solution of each of […], PACAP and the peptides of the invention was prepared in a concentration as high as 100-fold than the final concentration so that its concentration in the organ bath could be adjusted. 30 minutes after the carbachol-containing Krebs solution was dropped, 100 μl of the sample solution was dropped.
It was assumed that the degree of contraction of the smooth muscle is 0 in the absence of carbachol and the degree is 100 in the presence of carbachol. Minimum contraction degree A (i.e. maximum relaxation value) in the presence of the sample was determined, and maximum relaxation degree B was calculated as follows:
Maximum relaxation degree B (%)=100-A
The time required to reach half of the maximum relaxation value (referred to hereinafter as "half-time T") after the addition of the sample was determined.
A change in the relaxation degree of the bronchial smooth muscle with time was determined using each peptide at 3 dosages of 0.3 μM, 1 μM, and 3 μM respectively. The results are shown in the drawings: PACAP in FIG. 1; peptide 5 obtained in Example 5, in FIG. 2; VIP in FIG. 3; and peptide 11 obtained in Example 11, in FIG. 4. The maximum relaxation degree B at a dosage of 3 μM is 75% for peptide 5 and 80% for peptide 11, and half-time T is 360 minutes or more in both the cases.

[2] = test system: Wistar male rats; test: Blood-flow increasing action in anesthetized rats (femoral artery blood flow, carotid blood pressure); type: in vivo; conditions: 100 pmol/kg intraarterially, right femoral artery
Experimental: Purified peptides 1 to 15 obtained in Examples 1 to 15 were examined for their blood-flow increasing action and compared with those of VIP and PACAP. Wistar male rats each weighing 220 to 250 g were anesthetized by intraperitoneal administration of pentobarbital (25 mg/kg) and fixed on their back. An arterial canula was inserted into the carotid and then connected to a blood-pressure transducer (DX-300, Nippon Koden, Japan) via a doom kit (SCK-512, Nippon Koden) filled with heparin-containing physiological saline (10 U/ml) to measure blood pressure with a strain blood-pressure amplifier (AP-601G, Nippon Koden). Further, a blood-flow measurement probe (FR-030T, Nippon Koden) was attached to the right femoral artery and then connected to an electromagnetic blood-flow meter (MFV-3200, Nippon Koden) to measure blood flow. The dosage of each peptide intraarterially administrated was 100 pmol/kg.

Substance	Half-time T (time required to reach half of the maximum relaxation value) ([1]; 0.3 μM)	Maximum relaxation degree B ([1]; 0.3 μM)	Half-time T (time required to reach half of the maximum relaxation value) ([1]; 1 μM)	Maximum relaxation degree B ([1]; 1 μM)	Half-time T (time required to reach half of the maximum relaxation value) ([1]; 3 μM)	Maximum relaxation degree B ([1]; 3 μM)	Blood Flow (increase in blood flow) [2]
pituitary adenylate cyclase activating polypeptide (HSDGIFTDSYSRYRKQMAVKKYLAAVLGKRYKQRVKNK; ends and bridges not checked; UniProt P16613 132-169, looked up) [PACAP, structurally determined peptide consisting of 38 amino acid residues, isolated from sheep hypothalamus]	60 min	40%	60 min	90%	100 min	90%	16.04 ± 5.92 mL/min
vasoactive intestinal peptide [VIP]	130 min	45%	150 min	80%	240 min	85%	10.18 ± 3.38 mL/min
